Measured values taken from patent US10914728B2, “Bioassay for insulin formulations” (priority 2016, dated 2021).

Legend:
Assay type in all cases: cell-based
[1] = system: H4IIE cells; assay: Mitogenicity (thymidine incorporation), H4IIE cells; settings: radioactively labelled thymidine, read-out: Approximate EC50 values, Mitogenecity (thymidine incorporation)
Procedure: (§1) For signalling, cells were treated with vehicle or increasing doses of insulin for 30 minutes. Cells were lysed in appropriate buffers and phosphorylation of the insulin receptor, Erk, Akt or Foxo was determined by Western blotting or ELISA, as specified. For mitogenicity, H4IIE cells were incubated with vehicle or increased doses of insulin and cellular growth was measured by detection of thymidine incorporation. […] Uptake and conversion of glucose into lipids were measured after 2 hours by extracting lipids into Microscint-e and measuring radioactivity using a top counter.
(§2) For all methods: to determine EC50 values, data were fitted to a nonlinear 4 parameter regression curve using Graphpad Prism software.

[2] = system: primary rat adipocytes; assay: Rat free fat cell lipogenesis; settings: Isolated primary rat adipocytes; H3 labelled glucose; 2 hours; read-out: Approximate EC50 values, Rat Free Fat Cell lipogenesis
Procedure: as §1, §2

[3] = system: H4IIE cells; assay: Sensitivity assessment: ERK phosphorylation, H4IIE cells, Western blotting; settings: insulin for 30 minutes, read-out: Approximate EC50 values, ERK phosphorylation
Procedure: as §1, §2

human insulin
EC50 [1]: ~1 nM
EC50 [2]: ~0.02 nM
EC50 [3]: ~2.3 nM
